In patent US11209732B2, “Near infrared absorbing composition, film, infrared cut filter, solid image pickup element, infrared absorber, and compound” (FUJIFILM Corporation, priority 2015, dated 2021):

Tests used:
[1] = Solubility of compound in solvents at 25° C.; assay type: physicochemical; settings: for Solubility PGMEA: propylene glycol monomethyl ether acetate; for Solubility Cyclohexanone / Solubility in each of the solvents (in words): cyclohexanone; for Solubility in each of the solvents (in words): PGMEA; for Solubility Toluene / Solubility in each of the solvents (in words): toluene
Procedure: The solubility of each of the compounds in each of solvents (cyclohexanone, propylene glycol monomethyl ether acetate (PGMEA), toluene) at 25° C. was evaluated based on the following criteria.
A: the solubility of the compound in the solvent at 25° C. was 2 mass % or higher

[2] = Absorption maximum of compound in chloroform solution; assay type: physicochemical; settings: absorbance at maximum 0.7 to 1.2
Procedure: The absorption maximum of the squarylium compound (1) is a value measured using a chloroform solution of the squarylium compound that is adjusted such that an absorbance at the absorption maximum is in a range of 0.7 to 1.2.
Each of the obtained compounds was dissolved in chloroform to prepare a solution having a concentration of 1 g/L. Next, the solution in which each of the compounds was dissolved was appropriately diluted such that an absorbance at an absorption maximum in an absorption spectrum thereof was in a range of 0.7 to 1.2, and the absorption maximum (λmax) thereof was measured using UV-1800 (manufactured by Shimadzu Corporation).

Absorption Maximum (nm) [2] [nm] | Solubility in each of the solvents (in words) [1] | SMILES | Solubility Cyclohexanone [1] | Solubility PGMEA [1] | Solubility Toluene [1]
719 | – | CCCCCCC1=CC(=[N+](c2ccc3ccccc3c2)c2ccc3ccccc3c2)S/C1=C1\C(=O)C(c2sc(N(c3ccc4ccccc4c3)c3ccc4ccccc4c3)cc2CCCCCC)=C1[O-] [Compound 1] | A (the solubility of the compound in the solvent at 25 °C was 2 mass % or higher) | B (the solubility of the compound in the solvent at 25 °C was 1 mass % or higher and lower than 2 mass %) | A (the solubility of the compound in the solvent at 25 °C was 2 mass % or higher)
687 | insufficient | O=C1C(c2sc(N(c3ccccc3)c3ccccc3)nc2-c2ccccc2)=C([O-])/C1=C1/SC(=[N+](c2ccccc2)c2ccccc2)N=C1c1ccccc1 [Compound R-1, reference compound] | C (the solubility of the compound in the solvent at 25 °C was 0.5 mass % or higher and lower than 1 mass %) | D (the solubility of the compound in the solvent at 25 °C was lower than 0.5 mass %) | C (the solubility of the compound in the solvent at 25 °C was 0.5 mass % or higher and lower than 1 mass %)
704 | insufficient | CCCCc1ccc(N(c2ccc(CCCC)cc2)c2ccc(C3=C([O-])/C(=C4\C=CC(=[N+](c5ccc(CCCC)cc5)c5ccc(CCCC)cc5)S4)C3=O)s2)cc1 [Compound R-3, reference compound] | B (the solubility of the compound in the solvent at 25 °C was 1 mass % or higher and lower than 2 mass %) | D (the solubility of the compound in the solvent at 25 °C was lower than 0.5 mass %) | B (the solubility of the compound in the solvent at 25 °C was 1 mass % or higher and lower than 2 mass %)

Further lines, the compound ahead of its results:

SMILES | Absorption Maximum (nm) [2] [nm] | Solubility in each of the solvents (in words) [1] | Solubility Cyclohexanone [1] | Solubility PGMEA [1] | Solubility Toluene [1]
CCCCCCCCc1ccc(N(c2ccc(CCCCCCCC)cc2)c2cc3sc(C4=C([O-])/C(=c5\cc6c(s5)=CC(=[N+](c5ccc(CCCCCCCC)cc5)c5ccc(CCCCCCCC)cc5)S6)C4=O)cc3s2)cc1 [Compound 2] | 770 | – | A (the solubility of the compound in the solvent at 25 °C was 2 mass % or higher) | B (the solubility of the compound in the solvent at 25 °C was 1 mass % or higher and lower than 2 mass %) | B (the solubility of the compound in the solvent at 25 °C was 1 mass % or higher and lower than 2 mass %)
CCCCCCCCc1ccc(N(c2ccc(CCCCCCCC)cc2)c2ccc(/C=C/c3ccc(C4=C([O-])/C(=c5\cc/c(=C\C=C6/C=CC(=[N+](c7ccc(CCCCCCCC)cc7)c7ccc(CCCCCCCC)cc7)S6)s5)C4=O)s3)s2)cc1 [Compound 4] | 860 | – | A (the solubility of the compound in the solvent at 25 °C was 2 mass % or higher) | B (the solubility of the compound in the solvent at 25 °C was 1 mass % or higher and lower than 2 mass %) | B (the solubility of the compound in the solvent at 25 °C was 1 mass % or higher and lower than 2 mass %)
CCCCCCc1cc(-c2ccc(N(c3ccc(C)cc3)c3ccc(C)cc3)s2)sc1C1=C([O-])/C(=c2/s/c(=C3\C=CC(=[N+](c4ccc(C)cc4)c4ccc(C)cc4)S3)cc2CCCCCC)C1=O [Compound 5] | – | – | A (the solubility of the compound in the solvent at 25 °C was 2 mass % or higher) | B (the solubility of the compound in the solvent at 25 °C was 1 mass % or higher and lower than 2 mass %) | A (the solubility of the compound in the solvent at 25 °C was 2 mass % or higher)
CCCCCCCCCCCCN(c1ccccc1)c1ccc(C2=C([O-])/C(=C3C=C/C(=[N+](\CCCCCCCCCCCC)CCNS(=O)(=O)CCCC)C=C/3O)C2=O)s1 [Compound R-2, reference compound] | 653 | – | A (the solubility of the compound in the solvent at 25 °C was 2 mass % or higher) | A (the solubility of the compound in the solvent at 25 °C was 2 mass % or higher) | A (the solubility of the compound in the solvent at 25 °C was 2 mass % or higher)
